The text below walks through data of patent US10238622B2, “Methods of treating and preventing/reducing the likelihood of Mesial temporal lobe epilepsy (TLE)” (priority 2009, dated 2019).

The subject of assay [1] is Li-pilocarpine SE rats. In words: Lithium-pilocarpine status epilepticus induction, drugs given 1 hour after SE onset. In kind it is in vivo, rat. As to conditions: Diazepam 4 mg/kg i.m.; for effect on seizures (status epilepticus): given 1 hour after SE onset, Atropine sulfate 10 mg/kg s.c. On the procedure: (§1) All procedures were approved by the Institutional Animal Care and Use Committee at the University of New Mexico Health Sciences Center and were in accordance with National Institutes of Health Guide for the Care and Use of Laboratory Animals. Our protocol for the experiments here was a slight modification of a protocol published by Andre et al. (Andre et al., 2007). Twenty four hours prior to seizure induction, male Wistar rats, 2-3 months old, were administered s.c. 3 mmol/kg lithium chloride dissolved in isotonic NaCl saline Pilocarpine was then administered s.c. (25 mg/kg in isotonic NaCl). Once generalized limbic convulsions began, subcutaneous needle EEG electrodes were placed to confirm the development of status epilepticus (SE), defined as the occurrence of continuous high amplitude EEG spiking (Ormandy et al., 1989). These needles were fashioned from 25 gauge hypodermic needles (Becton Dickinson), with the hub cut off and bent at 60 degree angles so they will stay in place. One needle was inserted subcutaneously in the scalp over the parietal cortex and the other, which served as the reference electrode, over the scapula. […] Recording was then generally discontinued. Atropine sulfate (10 mg/kg s.c.) and Diazepam (4 mg/kg i.m.) were administered in order to improve survival, decrease anxiety and induce muscle relaxation. […] 12 hours after SE onset the EEG was recorded again for 5-10 min, and all rats had intermittent or organized, i.e. bursts of EEG spiking.

In assay [2] the test system is EC L5 neurons. In words: GABAAergic PSP reversal potential, sharp microelectrode recording in acute brain slices 3 weeks post SE. Format: cell-based, rat. On the procedure: (§2) All experiments were performed on acute horizontal brain slices containing temporal neocortex, entorhinal cortex, subiculum and the ventral hippocampus. Control, or rats 2 or 3 weeks post-seizure, were anesthetized deeply with a mixture of ketamine and xylazine (85 and 15 mg/ml, respectively) and decapitated. The brains were removed rapidly and placed in an oxygenated (95% O2/5% CO2) ice-cold cutting solution containing (in mM): 3 KCl, 1.25 NaH2PO4, 6 MgSO4, 26 NaHCO3, 0.2 CaCl2, 10 glucose, 220 sucrose, and 0.43 ketamine. Slices (350 μm) were cut in ice-cold cutting solution with a vibratome (Dosaka DTK-1000) and transferred from there into Artificial Cerebro-Spinal Fluid (ACSF, in mM: 126 NaCl, 3 KCl, 1.25 NaH2PO4, 1 MgSO4, 26 NaHCO3, 2 CaCl2, and 10 glucose) equilibrated with 95% O2/5% CO2 at 34° C. temperature for recovery. After 1 hr ACSF was changed again, and the slices were held at room temperature until used for recording.
(§3) Individual slices were transferred to a recording chamber mounted on a fixed-stage microscope (Zeiss Axioskop, Jena, Germany) and superfused with warmed (34° C.), oxygenated ACSF at 2 ml/min. Intracellular recordings were made from EC layer 5 neurons with borosilicate glass sharp microelectrodes (80-150 MΩ) filled with either 1 M K2SO4, or 0.5 M potassium acetate/0.5 M KCl for lower electrode resistance, or 2 M CsSO4/0.1 M KCl for improved space clamp. […] Therefore all final recordings/data for bumetanide effects on GABAergic PSP reversal potential were obtained with microelectrodes filled with 1 M K2SO4 or 2 M CsSO4/0.1 M KCl.
(§4) Neurons were impaled in the medial entorhinal cortex just above the angular bundle, up to ¼ of cortex thickness, using a Nanostepper micropositioner (Scientific Precision Instruments, Oppenheim, Germany). Recordings were made using an Axoclamp 2B amplifier and digitized and recorded using an Axon Instruments Digidata 1322A (Molecular Devices, Union City, Calif.). Neurons with a RMP negative to −68 mV were tested with hyperpolarizing pulses to ˜−85 mV for the presence of Ih indicative of pyramidal neurons (Egorov et al., 2002; Egorov et al., 2003). […] Concentric bipolar stimulating electrodes (200 μm diameter, FHC Inc., ME, USA) were placed in layer 5 of EC, ˜150-250 μm from the recording electrode. Stimuli (70-100 μs, 100-800 nA) were controlled by a Master 8 programmable pulse generator connected to a stimulus isolation unit (A.M.P.I., Jerusalem, Israel). Full input-output relations for the EPSP and the IPSP were recorded, and stimulation intensities giving 70-90% of maximal response were used. Where indicated stimulation intensity was reduced to elicit 5-10% of maximal response.

In assay [3] the test system is EC L5 neurons. In words: Polysynaptic burst responses to single synaptic stimulation in acute brain slices 3 weeks post SE. Format: cell-based, rat. On the procedure: as §2, §3, §4
For these determinations, a polysynaptic burst was defined as a post-synaptic response lasting more than 150 ms at half amplitude, elicited from −75 mV<RMP<−68 mV.

The subject of assay [4] is Li-pilocarpine SE rats. In words: Seizures after acute bumetanide injection, video recordings, 12-17 weeks after SE (FIG. 12). Format: in vivo, rat. As to conditions: bumetanide 0.2 mg/kg body weight i.p., 12-17 weeks after Li-pilocarpine SE, n=5 rats. On the procedure:
All procedures were approved by the Institutional Animal Care and Use Committee at the University of New Mexico Health Sciences Center and were in accordance with National Institutes of Health Guide for the Care and Use of Laboratory Animals. Our protocol for the experiments here was a slight modification of a protocol published by Andre et al. (Andre et al., 2007). Twenty four hours prior to seizure induction, male Wistar rats, 2-3 months old, were administered s.c. 3 mmol/kg lithium chloride dissolved in isotonic NaCl saline Pilocarpine was then administered s.c. (25 mg/kg in isotonic NaCl). Once generalized limbic convulsions began, subcutaneous needle EEG electrodes were placed to confirm the development of status epilepticus (SE), defined as the occurrence of continuous high amplitude EEG spiking (Ormandy et al., 1989). These needles were fashioned from 25 gauge hypodermic needles (Becton Dickinson), with the hub cut off and bent at 60 degree angles so they will stay in place. […] 12 hours after SE onset the EEG was recorded again for 5-10 min, and all rats had intermittent or organized, i.e. bursts of EEG spiking.
Five Li-pilocarpine SE rats were subjected to a sequence of bumetanide or vehicle injections (5% ethanol in physiological saline, i.p., dates given on bottom line), and seizures occurring in the following 8 hours were analyzed by video recordings.

For assay [5], the system named is Li-pilocarpine SE rats. In words: Spontaneous seizures with chronic bumetanide via the drinking water, 8 hour video recording (FIG. 18, 19). In kind it is in vivo, rat. On the procedure:
as §1, with “discontinued.” for “discontinued. Atropine sulfate (10 mg/kg s.c.) and Diazepam (4 mg/kg i.m.) were administered in order to improve survival, decrease anxiety and induce muscle relaxation.”, “spiking. […]” for “spiking.”

In assay [6] the test system is pilocarpine SE rat. In words: Seizures provoked by open field exposure 6 weeks after end of chronic bumetanide treatment (FIG. 20). As to conditions: 27 weeks post SE, 6 weeks after end of bumetanide treatment, within 15 min, n=6 rats per group. Format: in vivo. On the procedure:
as §1, with “discontinued.” for “discontinued. Atropine sulfate (10 mg/kg s.c.) and Diazepam (4 mg/kg i.m.) were administered in order to improve survival, decrease anxiety and induce muscle relaxation.”, “spiking. […]” for “spiking.”

The test system of assay [7] is post SE rats. In words: Entering-a-dark box behavior in an open field (FIG. 21). As to conditions: chronic bumetanide from day 16 post SE for 12 weeks, 8 rats; control rats 78%, untreated post SE rats 15%. Format: in vivo, rat. On the procedure: as §1, with “discontinued.” for “discontinued. Atropine sulfate (10 mg/kg s.c.) and Diazepam (4 mg/kg i.m.) were administered in order to improve survival, decrease anxiety and induce muscle relaxation.”, “spiking. […]” for “spiking.”

Assay [8] concerns adult rat TLE model. As to conditions: infusion of very high doses, first 2 weeks after SE; cited from earlier work.

As to `CN1C(=O)CN=C(c2ccccc2)c2cc(Cl)ccc21` [Diazepam], in assay [1], the muscle relaxation entry was “induced muscle relaxation within one hour” and the “effect on seizures (status epilepticus)” value is given as “did not stop seizures”.

In the case of `CN1[C@@H]2CC[C@H]1CC(OC(=O)C(CO)c1ccccc1)C2.CN1[C@@H]2CC[C@H]1CC(OC(=O)C(CO)c1ccccc1)C2.O=S(=O)(O)O` (stereo partly shown) [atropine, Atropine sulfate], in assay [1], the “effect on seizures (status epilepticus)” value was “Nor did atropine stop seizures”.

Regarding `CCCCNc1cc(C(=O)O)cc(S(N)(=O)=O)c1Oc1ccccc1` [bumetanide], in assay [2] (3 weeks after SE, CNQX 10 μM and APV 50 μM present, shifts from −29.7 mV), the “E(PSP) of an EC L5 neuron after a 20 min exposure to bumetanide (FIG. 10A)” value is recorded as −60.9 mV. Moreover, the “reduction of driving force at −45 mV versus control rats” value in assay [2] (3 weeks after SE, in the presence of bumetanide) was around 42%. The “driving force for Cl− at −45 mV in the presence of bumetanide” value in assay [2] (3 weeks after SE, ˜26 mV in control rats) is on record as around 15 mV. In assay [2] (3 weeks post SE, n=5), the “absolute voltage average E(PSP) during washout of bumetanide” value is recorded as −34.2±3.4 mV. In assay [2] (bumetanide 10 μM, EC L5 neurons 3 weeks post SE, RMP ˜−72 mV, more than +40 mV without drug), the “average PSP reversal potential relative to RMP” value is reported as “+10 mV”. For the same compound, the “neurons with a polysynaptic response after washout of bumetanide” value in assay [3] (30 min washout, n=14) worked out at 35.1%. For the same compound, the “decrease of response duration at half-maximal amplitude in bumetanide” value in assay [3] (bumetanide 10 μM, 3 weeks post SE) was 36±9 % of the control response. Also, the “neurons with a polysynaptic response in bumetanide” value in assay [3] (bumetanide 10 μM, cells from rats 3 weeks after pilocarpine insult, n=14, 64.8% before drug) is on record as 11.6%. Moreover, the “response duration at half-maximal amplitude during washout of bumetanide” value in assay [3] (recovered to, relative to control response) is given as 75±11%. The “seizures occurring in the 8 hours following injection” value in assay [4] is recorded as “suppression of seizures”. Further, the “rats in which bumetanide prevented seizures completely” value in assay [5] (bumetanide via the drinking water, 0.65±0.13 mg/day, two other rats had reduced seizures) was 4 rats. For the same compound, the “seizure occurrence as % of seizures in time post SE-matched control SE rats” value in assay [5] (three and six weeks after end of 20 weeks chronic bumetanide via drinking water, n=6 rats per group) is reported as 15-22%. For the same compound, the “seizures provoked by open field exposure as % of time post SE-matched control SE rats” value in assay [6] is listed as “less than 15%”. Moreover, in assay [7], the “trials in which rats entered the dark box” value was 67 % of trials. In assay [8], the “suppression of SRS by bumetanide treatment” value is given as “complete failure”.

As for picrotoxin, the “number of spikes in polysynaptic burst responses in picrotoxin” value in assay [3] (picrotoxin 100 μM, 3 weeks post SE, n=8 neurons, 9.8±0.8 before drug) is 7.9±0.7 spikes per response. Besides, the “burst duration in picrotoxin, result in words” value in assay [3] (picrotoxin 100 μM, FIG. 11D) is reported as “did not reach statistical significance”. In assay [3] (picrotoxin 100 μM, averages of ten responses, n=8, p=0.094), the “reduction of action potential amplitudes in the averaged burst responses” value turned out to be 10.5±3.4%. The “decrease of the duration of polysynaptic bursts” value in assay [3] (picrotoxin 100 μM, trend, n=8, p=0.094) is 10.5%.
